Measured values as given in PubChem BioAssay AID1845217 (Molecular Pharmacology Branch, DTP, NCI, 2023).
“And” between values parts separate entries of the source, which are not always exact repeats. Equal values may be shown once.

Tested on: VA-ES-BJ tumor spheroid viability
Assay: Anticancer human tumor VA-ES-BJ cell line growth inhibition;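 further: spheroids exposed to compounds for seven days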;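 on viability, T/C: percent of DMSO vehicle control viability so 100% = untreated growth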
Details: spheroids with HUVEC and MSC; for viability, T/C: stronger effect = lower value
Excerpt: Multicellular complex tumor spheroid response to DNA repair inhibitors in combination with DNA-damaging drugs
This study explores the anticancer activities of DNA-damaging drugs and inhibitors of DNA damage repair, both as single agents and in combinations. Complex tumor spheroids comprised of malignant cells, endothelial cells and mesenchymal stem cells served as an in vitro model for human solid tumors. This model system incorporates physiologically relevant features and patient-derived or established malignant cell lines with clinically relevant genetic alterations from many tumor types. Twenty-six patient-derived or established malignant cell lines were evaluated representing sarcoma, melanoma, small cell lung cancer (SCLC), non-small cell lung cancer (NSCLC), as well as bladder, ovarian and pancreatic cancers. The concentration ranges selected for each drug and investigational agent were based upon clinically achievable concentrations if the clinical Cmax of the agent was known.
Compounds. The drugs and compounds olaparib (NSC753686), talazoparib (NSC767125), berzosertib (NSC777718), elimusertib (NSC800525), nedisertib (NSC802822), VX-984 (NSC792969), AZD-1390 (NSC803789), temozolomide (NSC362856), topotecan (NSC609699), trabectedin (NSC813783), staurosporine (NSC755774), and gemcitabine (NSC613327) were obtained from the National Cancer Institute (NCI) Developmental Therapeutics Program Chemical Repository. The FDA-approved anticancer drug set is available from the Developmental Therapeutics Program at https://dtp.cancer.gov/organization/dscb/obtaining/available_plates.htm. […] The stock solutions were prepared in dimethyl sulfoxide (DMSO, Sigma-Aldrich, St. Louis, MO, cat. D2650) at 400-fold the tested concentration and stored at -70 degrees C. Prior to their use, the stock solutions were diluted in fresh medium and the final DMSO concentration in the assay was 0.25% (v/v). All drugs and investigational agents were tested over a range starting from a high concentration at or near the clinical Cmax and decreasing in half-log increments. If the clinical Cmax for an agent had not been determined, the highest concentration tested was 10 microM.
Cell Lines. The patient-derived cancer cell (PDC) lines: 156681-154-R-J1-PDC, 283228-195-R-J1-PDC, 287954-098-R-J1-PDC, 292921-168-R-J2-PDC, 349418-098-R-PDC, 425362-245-T-J1-PDC, 556581-035-R-J1-PDC, and BL0293-F563-PDC were received from the NCI Patient-Derived Models Repository (PDMR, https://pdmr.cancer.gov). The established cell lines HS-SY-2 (RRID:CVCL_8719), MPNST, and SYO-1 (RRID:CVCL_7146) were obtained from the Sloan Kettering Institute. The alveolar soft parts sarcoma cell line ASPS-1 (RRID:CVCL_S738) was established at the NCI and grown from internal seed stocks. The following established cell lines were purchased from the American Type Culture Collection (ATCC, Manassas, VA): G-401 (ATCC, cat. CRL-1441, RRID:CVCL_0270), SW982 (ATCC, cat. HTB-93, RRID:CVCL_1734), VA-ES-BJ (ATCC, cat. CRL-2138, RRID:CVCL_1785), NCI-H719 (ATCC, cat. CRL-5837, RRID:CVCL_1582), NCI-H196 (ATCC, cat. CRL-5823, RRID:CVCL_1509), NCI-H841 (ATCC, cat. CRL-5845, RRID:CVCL_1595), NCI-H1618 (ATCC, cat. CRL-5879, RRID:CVCL_1480), NCI-H1876 (ATCC, cat. CRL-5902, RRID:CVCL_1503), DMS 114 (ATCC, cat. CRL-2066; RRID:CVCL_1174), NCI-H211 (ATCC, cat. CRL-5824; RRID:CVCL_1529), and SW 1271 (ATCC, cat. CRL-2177, RRID:CVCL_1716). The small cell lung cancer cell line COR-L88 was purchased from Sigma-Aldrich (cat. 92031917-1VL, RRID:CVCL_1141). The non-small cell lung cancer cell lines NCI-H226 (RRID:CVCL_1544) and NCI-H322M (RRID:CVCL_1557) were established at the NCI and grown from internal seed stocks. Pooled donor human umbilical vein endothelial cells (HUVEC, Lonza, cat. CC-2519) and human mesenchymal stem cells (hMSC, Lonza, cat. PT-2501) were purchased from Lonza (Walkersville, MD).
Cell Culture. All cells were maintained in an incubator at 37 degrees C and 5% CO2 with 95% humidity. […]

## COc1cc(C)[nH]c(=O)c1CN1CCc2c(Cl)cc(C(OC)C3COC3)c(Cl)c2C1=O (configuration not stated) + Cn1nnc2c(C(N)=O)ncn2c1=O
Curve of first compound, second compound 1 µM
  IC50: 9.57 µM
Curve of first compound, second compound 3.16 µM
  IC50: > 10 µM
Curve of first compound, second compound 10 µM
  IC50: 3.26 µM
Curve of first compound, second compound 31.6 µM
  IC50: 3.36 µM
Curve of first compound, second compound 100 µM
  IC50: 2.22 µM
Second compound 1 µM, first compound 0.0316 µM
  viability, T/C: 94%
Second compound 1 µM, first compound 0.1 µM
  viability, T/C: 88.8%
Second compound 1 µM, first compound 0.316 µM
  viability, T/C: 72.2%
Second compound 1 µM, first compound 1 µM
  viability, T/C: 61.4%
Second compound 1 µM, first compound 3.16 µM
  viability, T/C: 54%
Second compound 1 µM, first compound 10 µM
  viability, T/C: 49%
Second compound 3.16 µM, first compound 0.0316 µM
  viability, T/C: 97.6%
Second compound 3.16 µM, first compound 0.1 µM
  viability, T/C: 85.8%
Second compound 3.16 µM, first compound 0.316 µM
  viability, T/C: 70.8%
Second compound 3.16 µM, first compound 1 µM
  viability, T/C: 60.3%
Second compound 3.16 µM, first compound 3.16 µM
  viability, T/C: 56.1%
Second compound 3.16 µM, first compound 10 µM
  viability, T/C: 49.5%
Second compound 10 µM, first compound 0.0316 µM
  viability, T/C: 89%
Second compound 10 µM, first compound 0.1 µM
  viability, T/C: 87.2%
Second compound 10 µM, first compound 0.316 µM
  viability, T/C: 71.6%
Second compound 10 µM, first compound 1 µM
  viability, T/C: 58.4%
Second compound 10 µM, first compound 3.16 µM
  viability, T/C: 52.4%
Second compound 10 µM, first compound 10 µM
  viability, T/C: 45.2%
Second compound 31.6 µM, first compound 0.0316 µM
  viability, T/C: 95.5%
Second compound 31.6 µM, first compound 0.1 µM
  viability, T/C: 85.4%
Second compound 31.6 µM, first compound 0.316 µM
  viability, T/C: 68.9%
Second compound 31.6 µM, first compound 1 µM
  viability, T/C: 56.8%
Second compound 31.6 µM, first compound 3.16 µM
  viability, T/C: 51.9%
Second compound 31.6 µM, first compound 10 µM
  viability, T/C: 46%
Second compound 100 µM, first compound 0.0316 µM
  viability, T/C: 106%
Second compound 100 µM, first compound 0.1 µM
  viability, T/C: 90.2%
Second compound 100 µM, first compound 0.316 µM
  viability, T/C: 75.1%
Second compound 100 µM, first compound 1 µM
  viability, T/C: 53.8%
Second compound 100 µM, first compound 3.16 µM
  viability, T/C: 48.7%
Second compound 100 µM, first compound 10 µM
  viability, T/C: 42.7%

## CC(C)n1c(=O)n(C)c2cnc3cc(F)c(-c4ccc(OCCCN5CCCCC5)nc4)cc3c21
Compound 0.0316 µM
  viability, T/C: 77.7% and 93.7% and 97.1%
Compound 0.1 µM
  viability, T/C: 74.2% and 93.9% and 95.2%
Compound 0.316 µM
  viability, T/C: 73.1% and 90.5% and 92.7%
Compound 1 µM
  viability, T/C: 85.2% and 100% and 99%
Compound 3.16 µM
  viability, T/C: 91.6% and 105% (2×)
Compound 10 µM
  viability, T/C: 59.8% and 65.4% and 71.2%
Curve of compound
  IC50: > 10 µM
